Data reported in patent US8802631B2, “Peptides and methods for the treatment of gliomas and other cancers” (Ludwig Institute for Cancer Research Ltd., priority 2007, dated 2014).

Assays:
[1] = biological target: cellular prion protein (PrP^C), endogenous, on human glioblastoma cells (A172, U87MG) (human (A172 human glioblastoma cell line)) (UniProt P04156); assay: cell-based or functional assay
A172 cells [2] = assay: [3H]-thymidine incorporation proliferation assay in A172 cells; type: cell-based, human; conditions: 24 hr; for promotion of proliferation by peptide alone: serum-free media, FIG. 6
Erk = assay: Western blot of phospho-Erk in A172 cell lysates; type: cell-based, human; conditions: inhibitor added 10 minutes prior to STI1
U87MG cells = assay: BrdU incorporation assay in U87MG cells; type: cell-based, human; conditions: 24 hours; for effect of TAT peptide on cell proliferation mediated by STI1 (BrdU): TAT peptide 0.17 μM plus STI1 0.17 μM, FIG. 9; for effect of peptide on cell proliferation mediated by STI1 (BrdU): peptide 0.17 μM or 8 μM plus STI1 0.17 μM, FIG. 8; for effect of peptide on STI1-promoted U87MG proliferation (BrdU): FIG. 7B
Method: Cells were plated overnight on 24-well plates with glass cover slips, at a density of 1.5×10^4 cells per well, with DMEM with 10% FCS at 37° C. Plates were washed 3 times with PBS and were maintained in DMEM F12 for 48 hours. Cells were then treated for 24 hours with DMEM/10% FCS or DMEM plus mouse recombinant STI1 (170 nM); recombinant STI1 (170 nM) plus mouse peptide STI1230-245(ELGNDAYKKKDFDKAL) (SEQ ID NO: 1) or its human homologue peptide Hop230-245(ELGNDAYKKKDFDTAL) (SEQ ID NO: 2) (170 nM or 8 μM); STI1 (170 nM) plus STI1/Hop61-76 (GCKTVDLKPDWGKGYS) (SEQ ID NO: 3) irrelevant peptide (170 nM or 8 μM); or each one of the peptides alone. Two hours before the end of treatment, cells received a pulse of BrdU (35 μM) pulse and were fixed with 4% paraformaldehyde.
Coverslips were treated with 2N HCl for 30 minutes. The reagent was then removed and borate buffer applied (boric acid 0.1M, sodium hydroxide 0.15M), pH 8.4, for 10 minutes. Then, cells were treated with PBS plus 0.2% Triton X-100 for 15 minutes. The blocking step was made with PBS/0.2% Triton with 20% horse serum, for 1 hour. Primary anti-BrdU biotinylated antibodies (1:100) were applied overnight (diluted in PBS/0.2% Triton with 1% horse serum). Coverslips were washed 3 times with PBS and incubated for one hour with Strepta-Alexa 488 and DAPI reagents (1:1000), washed more 3 times with PBS and assembled to slides.
(§1) There were taken at least four microscopic fields of each treatment on WB filter, ranging from 330-385 nm (DAPI), plus their respective BrdU images, on WIB filter, 450-480 nm using DP controller software, Olympus. Picture files were analyzed on ImageJ software, and the percentage of BrdU positive nuclei in respect to total nuclei number (DAPI) was calculated using the Analyze Particles tool.
FIG. 7B: Treatment of U87MG cells with STI1230-245 peptide abrogates cell proliferation mediated by STI1. U87MG human glioblastoma cells were plated at 1.5×10^4 confluence on glass cover slips of 12 mm. After overnight adherence, cells were starved on serum-free media for 48 hours. Cells were subjected to distinct treatments (see picture) for 24 hours, and a BrdU pulse of 32 μM was performed on the last 2 hours of treatment. Immunofluorescence and cell imaging were done in order to permit absolute cell counting. Values represent percentage of BrdU positive cell nuclei from total number of cell nuclei. FCS (fetal calf serum), STI1/Hop (0.17 μM or 8 μM) and/or STI1230-245 (0.17 μM or 8 μM) and/or STI1/Hop61-76 (irrelevant N-terminus STI1/Hop peptide, 0.17 μM or 8 μM). *Statistically significant from control (without treatment), p<0.001. Bars shown as mean±SEM.
FIG. 8: Hop230-245 peptide inhibits the U87MG cell proliferation mediated by STI1. U87MG human glioblastoma cells were plated at 1.5×10^4 confluence on glass cover slips of 12 mm. After overnight adherence, cells were starved on serum-free media for 48 hours. Cells were subjected to distinct treatments (see picture) for 24 hours, and a BrdU pulse of 32 μM was performed on the last 2 hours of treatment. Immunofluorescence and cell imaging were done in order to permit absolute cell counting. Values represent percentage of BrdU positive cell nuclei from total number of cell nuclei. STI1 (0.17 μM) and/or Hop230-245 (0.17 μM or 8 μM) and/or STI1/Hop61-76 (irrelevant STI1/Hop61-76, 0.17 μM or 8 μM). *Statistically significant from control (without treatment), p<0.01. Bars shown as mean±SEM.
FIG. 9: Treatment of U87MG cells with TAT-STI1230-245 and TAT-Hop230-245 peptides inhibits cell proliferation mediated by STI1. U87MG human glioblastoma cells were plated at 1.5×10^4 confluence on glass cover slips of 12 mm. After overnight adherence, cells were starved on serum-free media for 48 hours. Cells were subjected to distinct treatments (see picture) for 24 hours, and a BrdU pulse of 32 μM was performed on the last 2 hours of treatment. Immunofluorescence and cell imaging were done in order to permit absolute cell counting. […]

rats = assay: One-trial step-down inhibitory avoidance (IA) long-term memory test; type: in vivo, rat
Text: Rats were trained in a one-trial, step-down IA paradigm, a hippocampal-dependent learning task in which stepping down from a platform present in a given context is associated with a foot shock, resulting in an increase in step-down latency when the animal is brought back to the training chamber for a retention test (Cammarota et al., 2004). The IA apparatus was a 50×25×25 cm Plexiglas box with a 5-cm-high, 8-cm-wide and 25-cm-long platform on the left end of a series of bronze bars that constitutes the floor of the box. During training, each animal was gently placed on the platform facing the left rear corner of the training box. When an animal stepped down and placed all four of its paws on the grid, it received a 2-s, 0.5-mA foot shock and was then immediately withdrawn from the training box. Animals were replaced in the IA box for retention testing 90 min (for short-term memory (STM)), or 24 h later (for long-term memory (LTM)); their latency to step down onto the grid was recorded. The difference between the training and test-session step-down latencies was taken as a measure of retention. Better memory for the training was inferred from longer retention latencies (Bernabeu et al., 1997; Izquierdo et al., 1997). The maximum retention latency allowed was 180 s, at which time the animal was taken out of the IA box if it had not stepped down and given a score of 180 s. Full details of the experimental protocols can be found in Coitinho et al., 2007.
The data obtained in tests of the effect of peptides on rat long-term memory are presented as medians±interquartile range and were analyzed by the Kruskal-Wallis nonparametric test followed by Dunn's post-hoc (n=10 to 13 animals for each treatment group). In all comparisons, p<0.05 was taken as a significant difference.
FIG. 11: STI1230-245 peptide and TAT-STI1230-245 peptides are capable of increasing long-term memory. The latency to step down before treated rats was recorded (Training) and immediately after training animals received a bilateral hippocampal infusion of saline, STI1230-245 peptide, TAT-STI1230-245 or TAT-STI161-76 irrelevant peptide at the concentration of 15 ng/μl in a total volume of 0.5 μl/side. The latency to step down was tested again 24 hours later (LTM test) and measures Long-term memory (LTM). Data are shown as mean±SE of step-down latencies (n=12 rats in each group). *p<0.05 vs control.

A172 cells [3] = assay: BrdU incorporation assay in A172 cells; type: cell-based, human; conditions: peptide 170 nM plus STI1 170 nM, 18 hours, FIG. 7A
Method: Cells were plated overnight on 24-well plates with glass coverslips, at a density of 1×10^4 cells per well, in DMEM high glucose plus 10% FCS at 37° C. Plates were washed 3 times with PBS and were maintained in DMEM without FCS for 30 hours. Cells were then treated for 18 hours with DMEM/10% FCS or DMEM plus mouse recombinant STI1 (170 nM); STI1 (170 nM) plus STI1230-245 peptide (170 nM); or STI1 (170 nM) plus STI161-76 irrelevant peptide (170 nM). Thirty minutes before the end of treatment, cells received a pulse of BrdU (35 μM) and were fixed with 4% paraformaldehyde.
Coverslips were treated with 2N HCl for 30 minutes. The reagent was then removed and borate buffer applied (boric acid 0.1M, sodium hydroxide 0.15M), pH 8.4, for 10 minutes. Then, cells were treated with PBS plus 0.2% Triton X-100 for 15 minutes. The blocking step was made with PBS/0.2% Triton with 20% horse serum, for 1 hour. […]
as §1, with “tool. […]” for “tool.”

Compound: recombinant mouse stress-inducible phosphoprotein 1 (STI1), wild type (from UniProt Q60864 1-543) (ligand)
- BrdU incorporation (proliferation) of A172 cells [1]: 1.5 fold
- BrdU incorporation (proliferation) of U87MG cells [1]: 3 fold
- [3H]-thymidine incorporation of A172 cells, concentration of the maximum effect [1]: 170 nM

Compound: N#CC(=C(/N)Sc1ccccc1N)/C(C#N)=C(\N)Sc1ccccc1N [U0126]
- effect of inhibitor on STI1-induced proliferation (A172 cells [2]; U0126 10 μM or LY294002 5 μM added 10 minutes before STI1 170 nM): completely abolished STI1-induced proliferation
- effect of co-treatment on STI1-induced Erk activation (Erk): abolished

Compound: YGRKKRRQRRRELGNDAYKKKDFDTAL (conjugate of seq id nos 2 and 8) [TAT-Hop230-245]
- effect of TAT peptide on cell proliferation mediated by STI1 (BrdU) (U87MG cells): able to block cell proliferation mediated by STI1
- effect in memory consolidation (rats; rat, in vivo): potent effect in memory consolidation

Compound: ELGNDAYKKKDFDTAL (listed as Homo sapiens) [Hop230-245, human homologue of mouse STI1230-245 peptide]
- effect of peptide on cell proliferation mediated by STI1 (BrdU) (U87MG cells): able to abrogate the cell proliferation mediated by STI1
- effect in memory consolidation (rats; rats, FIG. 11): potent effect in memory consolidation

Compound: ELGNDAYKKKDFDKAL (listed as Mus musculus) [STI1230-245]
- promotion of proliferation by peptide alone (A172 cells [2]): unable by itself to promote proliferation
- effect of peptide on STI1-induced proliferation (BrdU) (A172 cells [3]): inhibited STI1-induced proliferation
- effect of peptide on cell proliferation mediated by STI1 (BrdU) (U87MG cells): able to abrogate the cell proliferation mediated by STI1
- effect of peptide on STI1-promoted U87MG proliferation (BrdU) (U87MG cells; peptide 170 nM plus STI1 170 nM): blocked
- effect of peptide on STI1-promoted U87MG proliferation (BrdU) (U87MG cells; peptide 8 μM plus STI1 170 nM): blocked
- long-term memory (retention latency, LTM test 24 hours after training) (rats; bilateral hippocampal infusion immediately after training, 15 ng/μl, 0.5 μl/side): greatly enhanced long-term memory
- effect in memory consolidation (rats; rats, FIG. 11): potent effect in memory consolidation

Compound: GCKTVDLKPDWGKGYS (listed as Homo sapiens) [STI1/Hop61-76, N-terminus irrelevant STI1/Hop peptide, reference compound]
- promotion of proliferation by peptide alone (A172 cells [2]): did not enhance proliferation
- effect of peptide on STI1-induced proliferation (BrdU) (A172 cells [3]): no effect
- effect of peptide on cell proliferation mediated by STI1 (BrdU) (U87MG cells): had no effect upon proliferation mediated by STI1

Compound: YGRKKRRQRRRELGNDAYKKKDFDKAL (conjugate of seq id nos 1 and 8) [TAT-STI1230-245]
- effect of TAT peptide on cell proliferation mediated by STI1 (BrdU) (U87MG cells): able to block cell proliferation mediated by STI1
- effect in memory consolidation (rats; rat, in vivo): potent effect in memory consolidation
- long-term memory (retention latency, LTM test 24 hours after training) (rats; rat, in vivo): greatly enhanced long-term memory
